# Test results taken from US7786161B2, “Carboxylic acid derivatives and pharmaceutical agent comprising the same as active ingredient” (ONO Pharmaceutical Co., Ltd., priority 2001, dated 2010).
# Experiments:
# Assay in all cases: Receptor-binding experiment using cells expressing prostanoid receptor subtypes (3H-PGE2 binding, CHO cell membrane)
# EP4 receptor = target: T1, EP4 receptor (Mus musculus, UniProt P32240); conditions: 3H-PGE2 (2.5 nM) binding inhibition, membrane of CHO cells expressing mouse EP4; Ki=IC50/(1+([C]/Kd))
# T1 construct: expressed in transfected cells; host or cells: CHO cells
# Method: (§1) The pharmacological activity is confirmed by the following receptor-binding experiment by using cells expressing prostanoid receptor subtypes. • (i) Receptor-binding experiment by using cells expressing prostanoid receptor subtypes In accordance with the method of Sugimoto et al. [J. Biol. Chem., 267, 6463-6466 (1992)], CHO cells respectively expressing prostanoid receptor subtypes (mouse EP1, EP2, EP3, and EP4) were prepared to give membrane preparations.
# (§2) Each membrane fraction (50 μl) thus prepared and a reaction solution (150 μl) containing ^3H-PGE2 were incubated at room temperature for 1 hour. After ceasing the reaction with an ice-cooled buffer (3 ml), the bound ^3H-PGE2 was trapped in a glass filter (GF/B) by filtering with suction under reduced pressure. Then the bound radioactivity was measured with a liquid scintillator.
# (§3) Kd value and Bmax value were determined by Scatchard plots [Ann. N.Y. Acad. Sci., 51, 660 (1949)]. Nonspecific bond was determined as bond in the presence of unlabeled PGE2 in excess (2.5 μM). The ^3H-PGE2-binding inhibitory effects of the invention compounds were measured by adding ^3H-PGE2 (2.5 nM) and the invention compounds at various concentrations. In every reaction, the following buffer was employed.
# (§4) Buffer: potassium phosphate (10 mM, pH 6.0), EDTA (1 mM), MgCl2 (10 mM), NaCl (0.1 M).
# (§5) The dissociation constant Ki (μM) of each compound was determined in accordance with the following formula. […] Ki=IC50/(1+([C]/Kd))
# EP1 receptor = target: T2, EP1 receptor (Mus musculus, UniProt P35375); conditions: 3H-PGE2 (2.5 nM) binding inhibition, membrane of CHO cells expressing mouse EP1; Ki=IC50/(1+([C]/Kd))
# T2 construct: expressed in transfected cells; host or cells: CHO cells
# T2 sequence (P35375 1-405): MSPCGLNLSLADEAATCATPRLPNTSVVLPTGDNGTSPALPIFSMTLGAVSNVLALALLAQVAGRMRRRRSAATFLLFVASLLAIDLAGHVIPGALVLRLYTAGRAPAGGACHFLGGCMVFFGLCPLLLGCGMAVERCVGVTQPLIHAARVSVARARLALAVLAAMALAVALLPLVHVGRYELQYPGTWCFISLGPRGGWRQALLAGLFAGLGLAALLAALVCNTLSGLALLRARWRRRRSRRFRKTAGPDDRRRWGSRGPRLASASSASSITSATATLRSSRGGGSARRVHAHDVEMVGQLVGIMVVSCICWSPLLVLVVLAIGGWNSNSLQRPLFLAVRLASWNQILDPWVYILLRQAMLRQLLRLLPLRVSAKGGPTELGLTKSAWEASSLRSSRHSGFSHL
# Method: as §1, §2, §3, §4, §5
# EP2 receptor = target: T3, EP2 receptor (Mus musculus, UniProt Q62053); conditions: 3H-PGE2 (2.5 nM) binding inhibition, membrane of CHO cells expressing mouse EP2; Ki=IC50/(1+([C]/Kd))
# T3 construct: expressed in transfected cells; host or cells: CHO cells
# Method: as §1, §2, §3, §4, §5
# EP3 receptor = target: T4, EP3 receptor (Mus musculus, UniProt P30557); conditions: 3H-PGE2 (2.5 nM) binding inhibition, membrane of CHO cells expressing mouse EP3; Ki=IC50/(1+([C]/Kd))
# T4 construct: expressed in transfected cells; host or cells: CHO cells
# T4 sequence (P30557 1-365): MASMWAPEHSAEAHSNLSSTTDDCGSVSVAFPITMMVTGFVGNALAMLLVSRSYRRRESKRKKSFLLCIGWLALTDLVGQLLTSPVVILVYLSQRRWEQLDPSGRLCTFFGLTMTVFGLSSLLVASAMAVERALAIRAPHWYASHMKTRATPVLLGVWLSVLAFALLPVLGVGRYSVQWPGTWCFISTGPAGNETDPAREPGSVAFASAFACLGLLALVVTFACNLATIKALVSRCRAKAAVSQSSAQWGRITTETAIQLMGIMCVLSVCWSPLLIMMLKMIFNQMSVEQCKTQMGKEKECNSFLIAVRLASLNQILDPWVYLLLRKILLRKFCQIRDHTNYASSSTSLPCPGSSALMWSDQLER
# Method: as §1, §2, §3, §4, §5
# T3 sequence (Q62053 whole entry): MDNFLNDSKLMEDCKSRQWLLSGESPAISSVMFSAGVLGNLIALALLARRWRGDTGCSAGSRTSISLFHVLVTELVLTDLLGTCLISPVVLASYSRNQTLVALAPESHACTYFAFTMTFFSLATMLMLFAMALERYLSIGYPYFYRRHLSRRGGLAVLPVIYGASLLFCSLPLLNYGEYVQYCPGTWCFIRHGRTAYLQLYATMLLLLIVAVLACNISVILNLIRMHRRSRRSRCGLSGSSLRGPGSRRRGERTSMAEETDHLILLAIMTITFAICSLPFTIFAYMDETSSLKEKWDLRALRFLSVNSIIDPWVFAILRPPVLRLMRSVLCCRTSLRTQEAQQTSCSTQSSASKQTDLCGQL
# T1 sequence (P32240 whole entry): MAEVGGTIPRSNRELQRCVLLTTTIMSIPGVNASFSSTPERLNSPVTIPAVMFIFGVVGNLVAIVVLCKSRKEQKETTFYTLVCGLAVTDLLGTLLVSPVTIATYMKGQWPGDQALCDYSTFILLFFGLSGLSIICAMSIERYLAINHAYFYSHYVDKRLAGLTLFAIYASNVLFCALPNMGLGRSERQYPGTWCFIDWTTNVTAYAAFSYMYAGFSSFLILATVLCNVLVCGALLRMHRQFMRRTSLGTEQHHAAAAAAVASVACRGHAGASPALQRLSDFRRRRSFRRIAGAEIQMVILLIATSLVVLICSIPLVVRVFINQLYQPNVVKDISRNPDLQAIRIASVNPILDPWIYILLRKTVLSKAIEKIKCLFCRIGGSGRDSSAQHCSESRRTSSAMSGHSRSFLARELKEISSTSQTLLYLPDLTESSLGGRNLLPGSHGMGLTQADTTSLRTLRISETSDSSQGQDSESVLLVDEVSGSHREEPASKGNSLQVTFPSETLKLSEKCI
compound,measurement,setting,value
"CSCc1ccc(CCCC(=O)O)c(NC(=O)C(C)c2cccc3ccccc23)c1 (stereo not shown) [Example 8(13), 4-(2-((2-(naphthalen-1-yl)propanoyl)amino)-4-methylthiomethylphenyl)butanoic acid]",Ki,EP4 receptor,38 nM
same,Ki,EP1 receptor,> 10000 nM
same,Ki,EP2 receptor,> 10000 nM
same,Ki,EP3 receptor,270 nM
